# Test results as given in patent publication US8147838B2, “Peptide” (priority 2005, dated 2012).
# No end group written: not given here.
# Legend:
# [1] = biological target: MHC class I allele A*0101 (A1) (Homo sapiens, UniProt P04439, A114D/A174V/A182V/D101N/D185E/E176A/E190D/L180R/Q94H/R68K/S129P/T187R/V100A/V91M/W191G); assay: iScore multi-parametric analysis, A*0101; type: binding; conditions: for iScore, MHC Class I Molecule A*0101: level of binding: >0.5, 0.25-0.5, <0.25
# Method: (§1) Finally, multiparametric analysis is performed on the results from these assays and an iScore is generated. The iScore represents a measure of the overall quality of peptide-MHC binding, enabling candidate peptides to be ranked in order of binding quality and allowing rational prioritisation of peptides for functional cellular follow-up studies.
# (§2) As part of the validation of the iTopia system, a panel of overlapping peptides derived from the CMV pp 65 protein were used and their binding properties for the A*0201 allele analysed. A number of T cell epitopes restricted by HLA A*0201 had already been identified (by more conventional methodologies) by other researchers for this protein. In the iTopia study, it was reported that an iScore of: >0.5 represented “good quality binding”; between 0.25 and 0.5 represented “medium quality binding”; and <0.25 represented “poor quality binding”. Six of the 20 peptides which gave a “good” iScore (>0.5) for A*0201, represented previously characterised CMV pp 65 A*0201 epitopes.
# (§3) Each MHC class I allele has different binding properties and affinities for peptides which they bind. Therefore, information obtained with HLA A*0201 in which peptides are ranked as good, medium or poor binders using >0.5, 0.25-0.5 and <0.25 as thresholds is not necessarily transferable between alleles. Also, different proteins are likely to have distinct immunogenic profiles and the affinities between peptides and MHC class I molecules will be different between proteins. This may be particularly relevant in the case of self-antigens where immunogenicity is likely to be lower than in foreign proteins.
# (§4) Multi-parametric analysis permits the integration of half-life and ED50 parameters in an integrated iScore. This reflects the capability of a peptide to reconstitute with MHC molecules in a stable complex, defining its overall level of binding i.e. the iScore value represents the overall quality of peptide-MHC binding and is used to rank candidate peptides as an indicator of functional relevance. The lead candidate epitopes for each allele are selected for cellular functional analysis to confirm their biological relevance.
# (§5) The changes in gradient of the graphs in FIGS. 7 to 10 are indicated by a line which delineates the populations of iScores forming the basis of discrimination for further functional studies.
# [2] = biological target: MHC class I allele A*0201 (A2) (Homo sapiens, UniProt P04439, D140Y/D185E/D98H/E176V/E277Q/G131W/G231S/I119V/I121R/I166T/I218V/L300P/L318F/N151K/N90K/P208A/P217A/Q86G/Q94H/R138H/R169H/T345S); assay: iScore multi-parametric analysis, A*0201; type: binding; conditions: level of binding: >0.5, 0.25-0.5, <0.25
# Method: as §1, §2, §3, §4, §5
# [3] = biological target: MHC class I allele A*0301 (A3) (Homo sapiens, UniProt P04439); assay: iScore multi-parametric analysis, A*0301; type: binding; conditions: for iScore, MHC Class I Molecule A*0301: level of binding: >0.5, 0.25-0.5, <0.25
# Method: as §1, §2, §3, §4, §5
# [4] = biological target: MHC class I allele B*0702 (B7) (Homo sapiens, UniProt P01889); assay: iScore multi-parametric analysis, B*0702; conditions: level of binding: >0.5, 0.25-0.5, <0.25
# Method: as §1
# As part of the validation of the iTopia system, a panel of overlapping peptides derived from the CMV pp 65 protein were used and their binding properties for the A*0201 allele analysed. A number of T cell epitopes restricted by HLA A*0201 had already been identified (by more conventional methodologies) by other researchers for this protein. In the iTopia study, it was reported that an iScore of: >0.5 represented “good quality binding”; between 0.25 and 0.5 represented “medium quality binding”; and <0.25 represented “poor quality binding”.
# as §4
Sequence,"iScore, MHC Class I Molecule A*0101 [1]","iScore, MHC Class I Molecule A*0201 [2]","iScore, MHC Class I Molecule A*0301 [3]","iScore, MHC Class I Molecule B*0702 [4]","iScore (iTopia), A*0301 ([3]; integrates half-life and ED50)","iScore (iTopia), A*0101 ([1]; integrates half-life and ED50)"
"PPLAELAAL [Peptide 58, PPLAELAAL]",0,0.075,0,0.145,,
VLAQLPSLR [Peptide 115],0,0.113,0.023,0,,
SNASVSAPS [Peptide 83],0,0.154,0,0,,
SLQTSYVFL [Peptide 176],0,0.561,0,0,,
LTHLESLHL [Peptide 129],0,0.143,0,0,,
FLASAVSAQ [Peptide 24],0,0.134,0,0,,
AGDGRLRLA [Peptide 6],0,0.023,0,0,,
GLPHIRVFL [Peptide 142],0,1.39,0.319,0.075,0.319,
ELAALNLSG [Peptide 60],0,0.075,0,0,,
LTNLSSNSD [Peptide 206],0,0.027,0,0,,
LSGSRLDEV [Peptide 63],0,0.075,0,0.107,,
APFLASAVS [Peptide 23],0,0.041,0,0.176,,
RHLDLSNNS [Peptide 119],0,0.029,0,0,,
LALIGAIFL [Peptide 182],0,0.425,0,0.067,,
ADLSPFAFS [Peptide 78],0,0.116,0,0,,
ILPPSLQTS [Peptide 174],0,0.523,0,0,,

Sequence,"iScore, MHC Class I Molecule A*0101 [1]","iScore, MHC Class I Molecule A*0201 [2]","iScore, MHC Class I Molecule A*0301 [3]","iScore, MHC Class I Molecule B*0702 [4]","iScore (iTopia), A*0301 ([3]; integrates half-life and ED50)","iScore (iTopia), A*0101 ([1]; integrates half-life and ED50)"
SPTSSASSF [Peptide 17],0,0,0,0.335,,
AQLPSLRHL [Peptide 116],0,0.162,0,0,,
SASSFSSSA [Peptide 19],0,0.045,0,0,,
RDACRDHME [Peptide 195],0,0.08,0,0,,
FSSSAPFLA [Peptide 21],0.023,0.116,0,0,,
AVSAQPPLP [Peptide 26],0,0.062,0,0,,
LQGLRRLEL [Peptide 105],0,0.114,0,0.119,,
VPTDLPAYV [Peptide 43],0.098,0.059,0,0,,0.098
EVVQGKDRL [Peptide 157],0,0.139,0,0,,
VSLTYVSFR [Peptide 124],0,0,0.025,0,,
LDLSHNPLA [Peptide 74],0,0.226,0,0,,
LSPFAFSGS [Peptide 79],0,0.064,0,0,,
YLNRKGIKK [Peptide 188],0,0.118,0.065,0.089,,
LVELILNHI [Peptide 88],0,0.109,0,0,,
GWVSSSSPT [Peptide 14],0,0.044,0,0,,
